# Measurements published in patent US11648222B2, “Use of CYP26-resistant RAR alpha selective agonists in the treatment of cancer” (Io Therapeutics, Inc., priority 2015, dated 2023).
# Legend:
# [1] = system: FLT3/ITD acute myeloid leukemia (AML) cells; settings: recent studies; cited from earlier work
# [2] = system: OCI-AML 3, Kasumi-1 and APL NB4 cells; experiment: Clonogenic growth of AML cell lines in the presence or absence of stroma; type: cell-based; settings: for clonogenic growth (CFU) compared to control: off and on stroma, NB4: 10^-7 M IRX5183, 10^-8 M AM80, OCI-AML3, Kasumi-1: 10^-6 M IRX5183, 10^-7 M AM80; for clonogenic growth: presence or absence of stroma
# Experimental: The BM stroma, which expresses inducibly high levels of CYP26, metabolically inactivates ATRA and provides a protected environment for AML cancer stem cells. Synthetic, CYP26-resistant RARα agonists, such as IRX5183 and AM80, should be able to bypass stroma-mediated protection of AML cells and differentiate the cancer stem cells resident in the protected environment of bone marrow niche. To test these hypotheses, clonogenic growth experiments were conducted in the non-APL AML cell lines OCI-AML 3 and Kasumi-1 and APL NB4 cells, which were treated with ATRA, IRX5183, and AM80 in the presence or absence of stroma.
# [3] = system: AML; settings: patients; cited from earlier work
# [4] = system: non-APL AML cells; settings: in vitro; cited from earlier work
# [5] = system: BM stromal cells; experiment: Effect of soluble factors on CYP26A1 expression in BM stromal cells; type: cell-based; settings: soluble factor added to BM stromal cells
# Experimental: (§1) qRT-PCR. Total RNA was extracted using the RNeasy Mini Kit (QIAGEN) according to the manufacturer's instructions. cDNA was synthesized by reverse transcription using the iScript cDNA Synthesis Kit (Bio-Rad). qRT-PCR was performed with iTaq SYBR Green Supermix (Bio-Rad) using sequence specific primers. Gene expression was normalized to GAPDH, and relative quantification was calculated using ΔΔCt. All experiments were performed in duplicate and run on the Bio-Rad CFX96 machine.
# [6] = system: H929 luciferase+ (Luc+) cells; experiment: Systemic MM xenograft, bioluminescence imaging; type: in vivo, NSG mice; settings: 4 weeks; for tumor burden (bioluminescence): monotherapy, BTZ 0.5 mg/kg i.p. twice weekly or IRX 10 mg/kg once daily
# Experimental: For the systemic MM model, 2×10^6 Luc+/GFP+H929 cells were injected via the tail vein into 16-week-old male NSG mice. After engraftment, as determined by an exponential increase in bioluminescence, mice were treated with BTZ (0.5 mg/kg i.p.) twice weekly and with IRX (10 mg/kg) once daily. Tumor burden was assessed by bioluminescence, as above.
# To test whether retinoids can enhance BTZ activity in MM, a systemic MM xenograft was developed by injecting 2×10^6 H929 luciferase+(Luc+) cells via the tail vein of nonobese, diabetic, severe combined immunodeficiency IL-2 receptor γ-KO (NSG) mice. The animals were randomized to receive IRX, BTZ, or a combination of both, and disease burden was followed weekly by bioluminescence imaging (FIG. 4).
# [7] = system: H929 Luc+ cells with WT or Smo-KO stroma; experiment: Subcutaneous xenograft model of MM-niche interactions (WT or Smo-KO stroma); type: in vivo, NSG mice
# Experimental: Mouse xenografts. 1×10^6 H929 Luc+ cells and 1×10^6 mouse BM stromal cells were resuspended in 100 μl Matrigel, diluted with RPMI (1:1), and injected subcutaneously into 16-week-old male NSG mice. After 4 days, treatment with BTZ (0.5 mg/kg i.p. twice weekly) and IRX (10 mg/kg i.p. daily) was initiated. Tumor burden was assessed by bioluminescence using the In Vivo Imaging System (PerkinElmer). For imaging, mice were exposed to 120 mg/kg D-luciferin via intraperitoneal injection […] before imaging and were anesthetized using isoflurane. Images were analyzed with Living Image Software, version 2.5 (PerkinElmer), and data were quantified as photons/second.
# To study to what extent an RA-low environment created by the BM stroma and enhanced by MM cells via paracrine Hedgehog signaling contributes to BTZ resistance, a xenograft model of MM-niche interactions was developed. Each mouse carried 2 subcutaneous tumors consisting of H929 Luc+ cells and either WT (anterior tumors) or Smo-KO stroma (posterior tumors). Mice were treated with IRX (10 mg/kg i.p. daily), BTZ (0.5 mg/kg i.p. twice weekly), or a combination of both. The growth of tumors bearing WT or Smo-KO stroma was not different in untreated or IRX-treated groups (FIGS. 7 and 8). […] While some tumors in the treatment group receiving combined IRX and BTZ appeared to have regressed completely, even after anatomical study, this was not the case for all the mice in this group.
# [8] = system: MM cells; experiment: Surface CD138 expression of MM cells by flow cytometry; type: cell-based, human
# Experimental: (§2) Coculture experiments. 24-well plates were coated with 0.1% gelatin in PBS for 30 min at 37° C. The gelatin solution was removed, and the stromal cells were cultured overnight at a density of 5×10^4 cells/well to obtain a confluent monolayer. At that time, MM cell lines or primary MM cells (1×10^5 in 2 ml) were added to the stroma cultures. The stroma cocultures were incubated at 37° C. in RPMI containing 10% FCS, L-glutamine, and P/S, with or without AGN19194310 (1 μM for 5 days), R115866 (1 μM for 5 days), IRX5183 (1 μM for 5 days), or BTZ (2.5 nM for 48 hr).
# Flow cytometry. Following treatment, MM cells were collected, washed with PBS, and stained for 15 min at room temperature with phycoerythrin-conjugated (PE-conjugated) anti-CD138. Cells were washed to remove unbound antibody and evaluated in a FACSCalibur system (BD Biosciences). Stromal cells were identified by GFP expression, and viable cells were identified using 7-aminoactinomycin D (7-AAD). To calculate cell numbers, live GFP-cells were normalized to calibration beads.
# [9] = system: MM H929 cell lines and MM CD138+ primary cells; experiment: qRT-PCR of B cell and PC markers in MM cells with or without BM stroma coculture; type: cell-based, human; settings: for expression of differentiation markers by qRT-PCR or flow cytometry: liquid conditions versus BM stroma; for mRNA expression of B cell and PC markers (BCL6, BLIMP1, XBP1s, CHOP): compound 1 μM for 5 days
# Experimental: Cell cultures. All cell lines were purchased from the American Type Culture Collection. H929, MM1s, and U266 cells were cultured in RPMI 1640 with 10% FCS (Sigma-Aldrich), 2 mM L-glutamine, and 100 μg/ml penicillin-streptomycin (P/S). OP-9 cells were cultured in α-MEM, 20% FCS, L-glutamine, and P/S. Cell lines were authenticated by short-tandem repeat profiling.
# Primary MM cells were obtained from patients with newly diagnosed or relapsed MM under an IRB-approved protocol at The Johns Hopkins University. Briefly, mononuclear cells were isolated from fresh BM aspirates by density gradient centrifugation (Ficoll-Paque); CD138+ cells were then selected via magnetic beads and columns and incubated in RPMI 1640, 10% FCS, L-glutamine, and P/S at 37° C.
# as §2, §1
# [10] = system: MM cell lines and MM CD138+ primary cells; experiment: BTZ sensitivity (clonogenic or cellular recovery) of MM cells after incubation with BM stroma; type: cell-based, human; settings: for effect on stroma-induced BTZ resistance: stroma coculture with compound 1 μM 5 days
# Experimental: as §2
# Mobilization experiments. MM cells were separated from BM stromal cells by gently pipetting several times around the well. Detached cells were centrifuged, resuspended in fresh media, and incubated in a 24-well plate for 1 hr at 37° C. During this short incubation period, contaminating stromal cells attached to the well, while MM cells remained in suspension. MM cells were then recovered by gently pipetting. This protocol was used for qRT-PCR and CFU coculture experiments. The purity achieved using this protocol was confirmed by flow cytometry to be 98%-99% MM cells and less than 2% contaminating stroma.
# Clonogenic assays. After treatment, MM cells were collected, washed with PBS, and plated at a density of 5,000 cells/ml in 1 ml of 1.32% methylcellulose supplemented with 30% FBS, 10% BSA, L-glutamine, P/S, and 0.1 mM p-ME. Cells were plated in triplicate in 35-mm culture dishes, incubated at 37° C., and scored for the presence of colonies 14 days later.
# [11] = system: BM stromal cells cocultured with MM cells; experiment: Stromal Cyp26a1 upregulation by MM cells in coculture; type: cell-based, mouse; settings: SMO inhibitor in coculture
# Experimental: as §2, §1
# To confirm the role of paracrine Hedgehog on this interaction, smoothened (Smo), a membrane receptor that transduces SHH signaling, was knocked out at the genomic level in the mesenchymal compartment. For this, BM mesenchymal cells derived from Smo^fl/fl mice were transduced with a retroviral vector encoding Cre recombinase (Smo-KO stroma). […]
# [12] = system: relapse/refractory MM patients; settings: in combination with BTZ; cited from earlier work
# [13] = BM stromal cell cocultures incubated with compound
compound,measurement,setting,value
"CC1(C)CCC(C)(C)c2cc(NC(=O)c3ccc(C(=O)O)cc3)ccc21 [AM80, 4-[(5,6,7,8-tetrahydro-5,5,8,8-tetramethyl-2-naphthalenyl)carbamoyl]benzoic acid]",differentiation and sensitivity to FLT3 inhibitors,[1],differentiates FMS-like tyrosine kinase 3/internal tandem duplication (FLT3/ITD) acute myeloid leukemia (AML) cells and increase their sensitivity to FLT3 inhibitors
same,clonogenic growth (CFU) compared to control,[2],decrease in clonogenic growth compared to control
same,clonogenic growth,[2],inhibited clonogenic growth in the presence of stroma but not as effectively as IRX5183
"CC1=C(/C=C/C(C)=C/C=C/C(C)=C/C(=O)O)C(C)(C)CCC1 [ATRA, All-trans retinoic acid]",clonogenic growth,[2],inhibited clonogenic growth only in the absence of stroma
same,clinical effectiveness,[3],clinically ineffective
same,differentiation and apoptosis,[4],causes terminal differentiation and apoptosis
TNF-α,upregulation of CYP26A1 on BM stromal cells,[5],no significant effects
CC1(C)CCC(C)(C)c2c1cc(C(=O)Nc1cc(F)c(C(=O)O)c(F)c1)c(O)c2Cl [IRX5183],disease burden (bioluminescence),[6]; IRX 10 mg/kg daily combined with BTZ 0.5 mg/kg twice weekly,significant (P<0.01) decrease in disease burden
same,tumor burden (bioluminescence),[6],decrease in tumor burden compared with untreated mice
same,clonogenic growth (CFU) compared to control,[2],decrease in clonogenic growth compared to control
same,clonogenic growth,[2],inhibited clonogenic growth to a similar extent in the presence or absence of stroma
same,growth of tumors bearing WT versus Smo-KO stroma,[7]; IRX 10 mg/kg i.p. daily alone,not different
same,tumor response (bioluminescence),"[7]; combination of IRX 10 mg/kg daily and BTZ 0.5 mg/kg twice weekly, WT and Smo-KO stroma","significant and equivalent response, regardless of the phenotype of the stromal compartment"
same,surface CD138 expression,[8]; [13],restored CD138 expression
same,expression of differentiation markers by qRT-PCR or flow cytometry,[9],"induced comparable changes, irrespective of the presence or absence of BM stroma"
same,"mRNA expression of B cell and PC markers (BCL6, BLIMP1, XBP1s, CHOP)",[9]; stroma cocultures,restored all markers to levels comparable to those of liquid control conditions
same,effect on stroma-induced BTZ resistance,[10]; then BTZ,overcome
"IL-6: cytokine, soluble factor produced by MM cells",upregulation of CYP26A1 on BM stromal cells,[5],no significant effects
CC1=C2C[C@H]3[C@@H](CC=C4C[C@@H](O)CC[C@@]43C)[C@@H]2CC[C@]12O[C@@H]1C[C@H](C)CN[C@H]1[C@H]2C [cyclopamine],stromal Cyp26a1 upregulation by MM cells,[11],partially overcame stromal Cyp26a1 upregulation by MM cells
"CC(C)C[C@H](NC(=O)[C@H](Cc1ccccc1)NC(=O)c1cnccn1)B(O)O [BTZ, bortezomib]",tumor burden (bioluminescence),[6],decreased tumor growth compared with untreated controls
same,tumor response (bioluminescence),"[7]; tumors carrying Smo-KO stroma, BTZ 0.5 mg/kg i.p. twice weekly",significant response
same,tumor response (bioluminescence),"[7]; tumors with WT stroma, BTZ 0.5 mg/kg i.p. twice weekly",refractory to BTZ treatment
same,BTZ resistance after separation from BM stroma,"[10]; H929 cells, 5-day stroma coculture, fresh media 0 to 48 hr, then BTZ",remained partially resistant to BTZ for up to 48 hr following detachment from stroma
same,sensitivity of MM cells to BTZ,[10]; Smo-KO stroma compared with WT stroma,increased sensitivity to BTZ
same,sensitivity of MM cells to BTZ,"[10]; absence of BM stroma (liquid), BTZ 2.5 nM 48 hr",highly sensitive to BTZ
same,sensitivity of MM cells to BTZ,"[10]; after 5 days incubation with BM stroma, BTZ 2.5 nM 48 hr",incubation with BM stroma induced BTZ resistance
CCc1ccc(C2=CC(C)(C)Sc3ccc(C#Cc4ccc(C(=O)O)cc4)cc32)cc1 [AGN194310],surface CD138 expression,"[8]; absence of stroma, incubation with compound",markedly decreased
same,"mRNA expression of B cell and PC markers (BCL6, BLIMP1, XBP1s, CHOP)",[9]; absence of stroma (Liquid),mimicked the changes induced by BM stromal cells
same,effect on BTZ sensitivity,"[10]; absence of stroma, compound 1 μM 5 days, then BTZ",decreasing BTZ sensitivity
c1cc(CN2CCCNCCNCCCNCC2)ccc1CN1CCCNCCNCCCNCC1 [plerixafor],response rates,[12],improved response rates
CCC(CC)C(c1ccc(Nc2nc3ccccc3s2)cc1)n1cncn1 (centres unmarked) [R115866],surface CD138 expression,[8]; [13],restored CD138 expression
same,expression of differentiation markers by qRT-PCR or flow cytometry,[9],did not significantly affect the expression of differentiation markers
same,"mRNA expression of B cell and PC markers (BCL6, BLIMP1, XBP1s, CHOP)",[9]; stroma cocultures,restored all markers to levels comparable to those of liquid control conditions
same,effect on BTZ resistance after separation from BM stroma,"[10]; H929 cells, coculture treated with compound 1 μM before separation",prevented the development of a BTZ-resistant phenotype
same,effect on stroma-induced BTZ resistance,[10]; then BTZ,overcome
